Results as given in patent EP1000039B1 (Wyeth Holdings Corporation, priority 1997, dated 1999).
Values after ≈ are worked out from the molar mass of the structure shown. Like-named read-outs stand apart in the source and are kept apart here.

Legend:
[1] = biological target: T1, His-tagged cytoplasmic domain of EGFR (Homo sapiens, UniProt P00533); experiment: Inhibition of Epidermal Growth Factor Receptor Kinase (EGF-R) using recombinant enzyme, RR-SRC peptide phosphorylation; type: biochemical
T1 construct: containing the EGFR cDNA encoding amino acids 645 - 1186 preceded by Met-Ala-(His)6; Met-Ala-(His)6 (N); made in house; host or cells: Sf9 insect cells, recombinant baculovirus vHcEGFR52
T1 sequence (P00533 669-1210): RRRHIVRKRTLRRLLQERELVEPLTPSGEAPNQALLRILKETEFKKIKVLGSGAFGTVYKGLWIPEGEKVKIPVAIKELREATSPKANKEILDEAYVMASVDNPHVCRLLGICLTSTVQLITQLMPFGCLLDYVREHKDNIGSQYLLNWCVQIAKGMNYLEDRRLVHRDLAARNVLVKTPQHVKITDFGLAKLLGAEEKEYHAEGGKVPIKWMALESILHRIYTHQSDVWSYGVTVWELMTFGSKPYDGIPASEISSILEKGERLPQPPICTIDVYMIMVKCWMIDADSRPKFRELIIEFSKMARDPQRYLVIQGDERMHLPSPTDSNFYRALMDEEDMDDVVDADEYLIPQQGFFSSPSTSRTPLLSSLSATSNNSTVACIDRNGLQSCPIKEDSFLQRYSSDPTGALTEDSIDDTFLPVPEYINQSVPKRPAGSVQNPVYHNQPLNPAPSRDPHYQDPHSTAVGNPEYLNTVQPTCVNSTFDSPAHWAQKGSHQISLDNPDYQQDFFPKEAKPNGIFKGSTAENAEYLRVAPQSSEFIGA
Description: The enzyme used in this assay is the His-tagged cytoplasmic domain of EGFR. […] Sf9 cells in 100 mm plates were infected at an moi of 10 pfu/cell and cells were harvested 48 h post infection. A cytoplasmic extract was prepared using 1% Triton X-100 and applied to Ni-NTA column. After washing the column with 20 mM imidazole, HcEGFR was eluted with 250 mM imidazole (in 50 mM Na2HPO4, pH 8.0, 300 mM NaCl). Fractions collected were dialyzed against 10 mM HEPES, pH 7.0, 50 mM NaCl, 10% glycerol, 1ug/mL antipain and leupeptin and 0. 1 mM Pefabloc SC. The protein was frozen in dry ice/methanol and stored -70°C.
For the enzyme reaction, 10 uL of each inhibitor (at various concentrations) were added to each well of a 96-well plate. To this was added 3 uL of enzyme (1: 10 dilution in 10mM HEPES, pH 7.4 for final conc. of 1:120). This was allowed to sit for 10 min on ice and was followed by the addition of 5 ul peptide (80 uM final conc.), 10ul of 4X Buffer (Table A), 0.25 uL ^33P-ATP and 12 uL H2O. The reaction was allowed to run for 90 min at room temperature and was followed by spotting the entire volume on to precut P81 filter papers. The filter discs were washed 2X with 0.5% phosphoric acid and radioactivity was measured using a liquid scintillation counter.

A431 = experiment: Inhibition of Cancer Cell Growth (Sulforhodamine B); type: cell-based, Human; details: Homo sapiens, A-431, 48 hours exposure, read-out: Inhibition of Cancer Cell Growth as Measured by Cell Number (IC50) A431
Description: (§1) After 48 hours exposure to test compounds, cells were fixed with trichloroacetic acid, and stained with Sulforhodamine B. After washing with trichloroacetic acid, bound dye was solubilized in 10 mM Tris base and optical density was determined using plate reader. Under conditions of the assay the optical density is proportional to the number of cells in the well. […] The test procedure is described in details by Philip Skehan et. al. J.Natl. Canc. […]

SKBR3 = experiment: as above; type: cell-based, Human; details: Homo sapiens, SK-BR-3, 48 hours exposure, read-out: Inhibition of Cancer Cell Growth as Measured by Cell Number (IC50) SKBR3
Description: as §1

A2780DDP = experiment: as above; type: cell-based, Human; details: Homo sapiens, 48 hours exposure, read-out: Inhibition of Cancer Cell Growth as Measured by Cell Number (IC50) A2780DDP
Description: as §1

A2780S = experiment: as above; type: cell-based, Human; details: Homo sapiens, 48 hours exposure, read-out: Inhibition of Cancer Cell Growth as Measured by Cell Number (IC50) A2780S
Description: as §1

LOX = experiment: as above; type: cell-based, Human; details: Homo sapiens, 48 hours exposure, read-out: Inhibition of Cancer Cell Growth as Measured by Cell Number (IC50) LOX
Description: as §1

MCF7 = experiment: as above; type: cell-based, Human; details: Homo sapiens, 48 hours exposure, read-out: Inhibition of Cancer Cell Growth as Measured by Cell Number (IC50) MCF7
Description: as §1

SW620 = experiment: as above; type: cell-based, Human; details: Homo sapiens, SW-620, 48 hours exposure, read-out: Inhibition of Cancer Cell Growth as Measured by Cell Number (IC50) SW620
Description: as §1

MB435 = experiment: as above; type: cell-based, Human; details: Homo sapiens, 48 hours exposure, read-out: Inhibition of Cancer Cell Growth as Measured by Cell Number (IC50) MB435
Description: as §1

[2] = recombinant enzyme, average of the number of tests, read-out: IC50

Structure (SMILES)	IC50 [1, 2]	IC50 (A431)	IC50 (SKBR3)	IC50 (A2780DDP)	IC50 (A2780S)	IC50 (LOX)	IC50 (MCF7)	IC50 (SW620)	IC50 (MB435)	IC50 [1]
CC(C)(C)[Si](C)(C)OCC#CC(=O)Nc1ccc2ncnc(Nc3cccc(Br)c3)c2c1 [Example 15, 4-(tert-Butyl-dimethyl-silanyloxy)-but-2-ynoic acid [4-(3-bromo-phenylamino)quinazolin-6-yl]-amide]	6 nM	0.04 µg/mL (≈ 0.0782 µM)	0.38 µg/mL (≈ 0.743 µM)	0.05 µg/mL (≈ 0.0978 µM)	0.02 µg/mL (≈ 0.0391 µM)	0.03 µg/mL (≈ 0.0587 µM)	0.45 µg/mL (≈ 0.88 µM)	0.02 µg/mL (≈ 0.0391 µM)	0.42 µg/mL (≈ 0.821 µM)	
CCN1CCN(CC#CC(=O)Nc2ccc3ncnc(Nc4cccc(Br)c4)c3c2)CC1 [Example 28, 4-(4-Ethyl-piperazin-1-yl)-but-2-ynoic acid [4-(3-bromophenylamino)-quinazolin-6-yl]-amide]		0.6 µg/mL (≈ 1.22 µM)	0.1 µg/mL (≈ 0.203 µM)	0.56 µg/mL (≈ 1.13 µM)	0.84 µg/mL (≈ 1.7 µM)	1.94 µg/mL (≈ 3.93 µM)	3.09 µg/mL (≈ 6.26 µM)	2.38 µg/mL (≈ 4.82 µM)	1.61 µg/mL (≈ 3.26 µM)	5.5 nM
CN1CCC=C(C(=O)Nc2ccc3ncnc(Nc4cccc(Br)c4)c3c2)C1 [Example 53]		0.44 µg/mL (≈ 1 µM)		4.73 µg/mL (≈ 10.8 µM)	2.89 µg/mL (≈ 6.59 µM)	5.62 µg/mL (≈ 12.8 µM)	5.09 µg/mL (≈ 11.6 µM)		4.31 µg/mL (≈ 9.83 µM)	60 nM
CN(C)CC=CC(=O)Nc1ccc2ncnc(Nc3cccc(Br)c3)c2c1 [Example 66, 4-Dimethylamino-but-2-enoic acid [4-(3-bromo-phenylamino)-quinazolin-6-yl]-amide]		0.007 µg/mL (≈ 0.0164 µM)	< 0.01 µg/mL	5.1 µg/mL (≈ 12 µM)	3.9 µg/mL (≈ 9.15 µM)	4.9 µg/mL (≈ 11.5 µM)	7.6 µg/mL (≈ 17.8 µM)	5.1 µg/mL (≈ 12 µM)	5.4 µg/mL (≈ 12.7 µM)	

More lines, main results first:

IC50 [1, 2]	IC50 (A431)	IC50 (SKBR3)	IC50 (A2780DDP)	IC50 (A2780S)	IC50 (LOX)	IC50 (MCF7)	IC50 (SW620)	IC50 (MB435)	Structure (SMILES)	IC50 [1]
	8.42 µg/mL (≈ 17.5 µM)	38 µg/mL (≈ 79.1 µM)	41.1 µg/mL (≈ 85.7 µM)	27 µg/mL (≈ 56.3 µM)	7.6 µg/mL (≈ 15.8 µM)	53.1 µg/mL (≈ 111 µM)	> 100 µg/mL	26.8 µg/mL (≈ 55.8 µM)	O=c1c(Nc2ccc3ncnc(Nc4cccc(Br)c4)c3c2)c(N2CCOCC2)c1=O [Example 52, 3-[4-(3-Bromo-phenylamino)-quinazolin-6-ylamino]-4-morpholin-4-yl-cyclobut-3-ene-1,2-dione]	
100 nM	2.83 µg/mL (≈ 6.46 µM)	3.57 µg/mL (≈ 8.15 µM)	3.16 µg/mL (≈ 7.21 µM)	4.81 µg/mL (≈ 11 µM)	3.48 µg/mL (≈ 7.94 µM)	6.72 µg/mL (≈ 15.3 µM)	3.61 µg/mL (≈ 8.24 µM)	5.2 µg/mL (≈ 11.9 µM)	CN(C)c1c(Nc2ccc3ncnc(Nc4cccc(Br)c4)c3c2)c(=O)c1=O [Example 49, 3-[4-(3-Bromo-phenylamino)-quinazolin-6-ylamino]-4-dimethylamino-cyclobut-3-ene-1,2-dione]	
2 nM	0.4 µg/mL (≈ 0.879 µM)	0.3 µg/mL (≈ 0.659 µM)	0.5 µg/mL (≈ 1.1 µM)	0.02 µg/mL (≈ 0.0439 µM)	0.2 µg/mL (≈ 0.439 µM)	5 µg/mL (≈ 11 µM)	0.1 µg/mL (≈ 0.22 µM)	2.8 µg/mL (≈ 6.15 µM)	COCCOCC#CC(=O)Nc1ccc2ncnc(Nc3cccc(Br)c3)c2c1 [Example 55, 4-(2-Methoxy-ethoxy)-but-2-ynoic acid [4-(3-bromo-phenylamino)-quinazolin-6-yl]-amide]	
	3.2 µg/mL (≈ 6.92 µM)	0.3 µg/mL (≈ 0.649 µM)	6.5 µg/mL (≈ 14.1 µM)	5.2 µg/mL (≈ 11.3 µM)	5.3 µg/mL (≈ 11.5 µM)	42 µg/mL (≈ 90.9 µM)	8.1 µg/mL (≈ 17.5 µM)	13 µg/mL (≈ 28.1 µM)	O=C(C=CCBr)Nc1ccc2ncnc(Nc3cccc(Br)c3)c2c1 [Example 65, 4-Bromo-but-2-enoic acid [4-(3-bromo-phenylamino)-quinazolin-6-yl]-amide]	
80 nM	0.73 µg/mL (≈ 2.11 µM)	0.04 µg/mL (≈ 0.116 µM)	1.39 µg/mL (≈ 4.02 µM)	1.86 µg/mL (≈ 5.38 µM)	0.5 µg/mL (≈ 1.45 µM)	3.62 µg/mL (≈ 10.5 µM)	0.43 µg/mL (≈ 1.24 µM)	4.35 µg/mL (≈ 12.6 µM)	CC#CC(=O)Nc1ccc2ncnc(Nc3cccc(N(C)C)c3)c2c1 [Example 61, But-2-ynoic acid [4-(3-dimethylamino-phenylamino)-quinazolin-6-yl]-amide]	
